Assay [1] concerns the target CDK2/Cyclin E1 (Homo sapiens, UniProt P24941). Description: CDK2/Cyclin E1 Biochemical Assay (TR-FRET), 0.060 mM ATP. The conditions noted are these: 0.15 μM Rb (Ser780)-biotin substrate, pH7.0, 60 min preincubation, 120 min reaction, room temperature. The gist of the method:
(§1)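 TR-FRET assay with 0.15 μM Rb (Ser780)-biotin substrate and 0-10 μM compound in 50 mM HEPES pH7.0, 50 mM MgCl2, 1 mM DTT. ATP was 0.060 mM for CDK2/Cyclin E1 and 0.015 mM for CDK1/Cyclin B1. Kinase was preincubated with compound 60 min, reacted 120 min at room temperature, and IC50 was fitted (four-parameter) from the 665/620 nm ratio.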
(In general: In TR-FRET formats the signal depends on donor and acceptor labels being close together.)

The target of assay [2] is CDK1/Cyclin B1 (Homo sapiens, UniProt P06493). Description: CDK1/Cyclin B1 Biochemical Assay (TR-FRET), 0.015 mM ATP. The conditions noted are these: 0.15 μM Rb (Ser780)-biotin substrate, pH7.0, 60 min preincubation, 120 min reaction, room temperature. Put shortly: as §1

Usually IC50 stands for the point on the concentration scale where inhibition reaches its midpoint. A higher IC50 goes with weaker potency.

CDK1/Cyclin B1, sequence (P06493 whole entry): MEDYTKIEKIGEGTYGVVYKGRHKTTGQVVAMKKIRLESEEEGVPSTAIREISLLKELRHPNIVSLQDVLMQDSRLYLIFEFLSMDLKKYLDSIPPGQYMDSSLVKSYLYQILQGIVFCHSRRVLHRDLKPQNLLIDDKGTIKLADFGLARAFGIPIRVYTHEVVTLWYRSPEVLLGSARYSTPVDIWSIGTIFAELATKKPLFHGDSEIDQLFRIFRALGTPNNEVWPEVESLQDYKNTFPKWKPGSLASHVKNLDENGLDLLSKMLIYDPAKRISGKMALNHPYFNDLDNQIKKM
CDK1/Cyclin B1, sequence (P14635 whole entry partner): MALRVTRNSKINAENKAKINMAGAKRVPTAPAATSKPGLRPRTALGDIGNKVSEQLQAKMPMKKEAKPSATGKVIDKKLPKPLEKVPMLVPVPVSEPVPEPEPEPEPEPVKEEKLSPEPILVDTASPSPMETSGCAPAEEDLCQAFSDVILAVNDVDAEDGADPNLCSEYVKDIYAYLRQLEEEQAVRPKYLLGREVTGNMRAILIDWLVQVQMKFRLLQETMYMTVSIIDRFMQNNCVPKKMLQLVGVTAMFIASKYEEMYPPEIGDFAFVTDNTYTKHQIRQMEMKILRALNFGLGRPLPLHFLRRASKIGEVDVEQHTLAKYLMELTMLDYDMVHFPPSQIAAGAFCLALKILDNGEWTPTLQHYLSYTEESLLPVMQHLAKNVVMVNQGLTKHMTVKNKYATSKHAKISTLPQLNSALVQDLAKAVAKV

In the case of `CC(C)NC(=O)O[C@H]1CC[C@@H](c2cc(Nc3ccc4c(c3F)S(=O)(=O)NC4(C)C)n[nH]2)C1` (relative stereo) [Example 13, cis-3-(3-((7-fluoro-3,3-dimethyl-1,1-dioxido-2,3-dihydrobenzo[d]isothiazol-6-yl)amino)-1H-pyrazol-5-yl)cyclopentyl isopropylcarbamate], the IC50 in assay [1] was found to be 21 nM; in assay [2], 563 nM.

Consider `COCC(C)NC(=O)O[C@H]1CC[C@@H](c2cc(Nc3ccc4c(c3F)CN(C3CC3)S4(=O)=O)n[nH]2)C1` (relative stereo) [Example 361, cis-3-(3-((2-cyclopropyl-4-fluoro-1,1-dioxido-2,3-dihydrobenzo[d]isothiazol-5-yl)amino)-1H-pyrazol-5-yl)cyclopentyl(1-methoxypropan-2-yl)carbamate], for which the IC50 in assay [1] came to 8.4 nM; in assay [2] it was 349 nM.

Consider `CCCNC(=O)O[C@H]1CC[C@@H](c2cc(Nc3ccc4c(c3F)CN(C)S4(=O)=O)n[nH]2)C1` (single isomer, unassigned) [Example 122a, cis-3-(3-((4-fluoro-2-methyl-1,1-dioxido-2,3-dihydrobenzo[d]isothiazol-5-yl)amino)-1H-pyrazol-5-yl)cyclopentyl propylcarbamate], for which the IC50 in assay [1] amounted to 12 nM; in assay [2] it was 455 nM.

As for `Cc1c(Nc2cc([C@@H]3CC[C@H](OC(=O)NC(C)C)C3)[nH]n2)ccc2c1CS(=O)(=O)N2C` (relative stereo) [Example 243, cis-3-(3-((1,4-dimethyl-2,2-dioxido-1,3-dihydrobenzo[c]isothiazol-5-yl)amino)-1H-pyrazol-5-yl)cyclopentyl isopropylcarbamate], the IC50 was found to be 37 nM in assay [1] and 978 nM in assay [2].

For the compound `Cc1c(Nc2cc([C@@H]3CC[C@H](OC(=O)NC(C)C)C3)[nH]n2)ccc2c1CNS2(=O)=O` (relative stereo) [Example 34, cis-3-(3-((4-methyl-1,1-dioxido-2,3-dihydrobenzo[d]isothiazol-5-yl)amino)-1H-pyrazol-5-yl)cyclopentyl isopropylcarbamate], the IC50 is 1.9 nM in assay [1] and 81 nM in assay [2].

With `CC(C)NC(=O)O[C@H]1CC[C@@H](c2cc(Nc3ccc4c(c3)S(=O)(=O)NC4=O)n[nH]2)C1` (relative stereo) [Example 16, cis-3-(3-((1,1-dioxido-3-oxo-2,3-dihydrobenzo[d]isothiazol-6-yl)amino)-1H-pyrazol-5-yl)cyclopentyl isopropylcarbamate], the IC50 in assay [1] amounted to 18 nM; in assay [2] it was 385 nM.

In the case of `CC(C)NC(=O)O[C@H]1CC[C@@H](c2cc(Nc3ccc4c(c3F)CS(=O)(=O)N4C3COC3)n[nH]2)C1` (single isomer, unassigned) [Example 259a, cis-3-(3-((4-fluoro-1-(oxetan-3-yl)-2,2-dioxido-1,3-dihydrobenzo[c]isothiazol-5-yl)amino)-1H-pyrazol-5-yl)cyclopentyl isopropylcarbamate], the IC50 in assay [1] amounted to 5.4 nM; in assay [2], 364 nM.

Take `COCCN1c2ccc(Nc3cc([C@@H]4CC[C@H](OC(=O)NC(C)C)C4)[nH]n3)c(F)c2CS1(=O)=O` (relative stereo) [Example 252, cis-3-(3-((4-fluoro-1-(2-methoxyethyl)-2,2-dioxido-1,3-dihydrobenzo[c]isothiazol-5-yl)cyclopentyl isopropylcarbamate]: the IC50 in assay [1] was determined as 3.8 nM; in assay [2], 79 nM.

On to `CC(C)NC(=O)O[C@H]1CC[C@@H](c2cc(Nc3cc4c(cc3F)CS(=O)(=O)N4)n[nH]2)C1` (relative stereo) [Example 310, cis-3-(3-((5-fluoro-2,2-dioxido-1,3-dihydrobenzo[c]isothiazol-6-yl)amino)-1H-pyrazol-5-yl)cyclopentyl isopropylcarbamate], for which the results for the IC50 in assay [1] and in assay [2] were 81 nM and 2200 nM, respectively.

As to `CC(CC(F)(F)F)NC(=O)O[C@H]1CC[C@@H](c2cc(Nc3ccc4c(c3)CS(=O)(=O)N4C)n[nH]2)C1` (relative stereo) [Example 229, cis-3-(3-((1-methyl-2,2-dioxido-1,3-dihydrobenzo[c]isothiazol-5-yl)amino)-1H-pyrazol-5-yl)cyclopentyl(4,4,4-trifluorobutan-2-yl)carbamate], the IC50 was found to be 6.4 nM in assay [1] and 30 nM in assay [2].

In the case of `CCNC(=O)O[C@H]1CC[C@@H](c2cc(Nc3ccc4c(c3F)CNS4(=O)=O)n[nH]2)C1` (relative stereo) [Example 141, cis-3-(3-((4-fluoro-1,1-dioxido-2,3-dihydrobenzo[d]isothiazol-5-yl)amino)-1H-pyrazol-5-yl)cyclopentyl ethylcarbamate], the concentration for half-maximal inhibition (IC50) is 8 nM in assay [1] and 157 nM in assay [2].

Take `CCCNC(=O)O[C@H]1CC[C@@H](c2cc(Nc3cc4c(cc3F)S(=O)(=O)NC4)n[nH]2)C1` (single isomer, unassigned) [Example 42b, cis-3-(3-((6-fluoro-1,1-dioxido-2,3-dihydrobenzo[d]isothiazol-5-yl)amino)-1H-pyrazol-5-yl)cyclopentyl propylcarbamate]: the IC50 in assay [1] stood at 5.5 nM; in assay [2] it was 128 nM.

`CC1NS(=O)(=O)c2ccc(Nc3cc([C@@H]4CC[C@H](OC(=O)NC5(C)CC5)C4)[nH]n3)c(F)c21` (single isomer, unassigned) [Example 52c, cis-3-(3-((4-fluoro-3-methyl-1,1-dioxido-2,3-dihydrobenzo[d]isothiazol-5-yl)amino)-1H-pyrazol-5-yl)cyclopentyl(1-methylcyclopropyl)carbamate]: the IC50 was determined as 1.9 nM in assay [1] and 154 nM in assay [2].

Take `CN1Cc2c(ccc(Nc3cc([C@@H]4CC[C@H](OC(=O)NC5(C)COC5)C4)[nH]n3)c2F)S1(=O)=O` (single isomer, unassigned) [Example 352a, cis-3-(3-((4-fluoro-2-methyl-1,1-dioxido-2,3-dihydrobenzo[d]isothiazol-5-yl)amino)-1H-pyrazol-5-yl)cyclopentyl(3-methyloxetan-3-yl)carbamate]: the IC50 in assay [1] turned out to be 14 nM; in assay [2], 365 nM.

As to `CC1(NC(=O)O[C@H]2CC[C@@H](c3cc(Nc4ccc5c(c4F)S(=O)(=O)NC5)n[nH]3)C2)CC1` (relative stereo) [Example 187, cis-3-(3-((7-fluoro-1,1-dioxido-2,3-dihydrobenzo[d]isothiazol-6-yl)amino)-1H-pyrazol-5-yl)cyclopentyl(1-methylcyclopropyl)carbamate], the results for the IC50 in assay [1] and in assay [2] were 0.7 nM and 14 nM, respectively.

On to `O=C(NC1CCCC1)O[C@@H]1CC[C@H](c2cc(Nc3ccc4c(c3F)CS(=O)(=O)N4)n[nH]2)C1` (single isomer, unassigned) [Example 400a], for which the values for the IC50 in assay [1] and in assay [2] were 6.9 nM and 154 nM, respectively.

Regarding `CC(C)NC(=O)O[C@H]1CC[C@@H](c2cc(Nc3ccc4c(c3)N(CCO)S(=O)(=O)C4)n[nH]2)C1` (relative stereo) [Example 309, cis-3-(3-((1-(2-hydroxyethyl)-2,2-dioxido-1,3-dihydrobenzo[c]isothiazol-6-yl)amino)-1H-pyrazol-5-yl)cyclopentyl isopropylcarbamate], the figures for the IC50 in assay [1] and in assay [2] were 1.4 nM and 6.1 nM, respectively.

As for `[2H]C([2H])([2H])N1c2c(F)cc(Nc3cc([C@@H]4CC[C@H](OC(=O)N[C@@H](C)CC)C4)[nH]n3)cc2CS1(=O)=O` (relative stereo) [Example 285, cis-3-(3-((7-fluoro-1-(methyl-d3)-2,2-dioxido-1,3-dihydrobenzo[c]isothiazol-5-yl)amino)-1H-pyrazol-5-yl)cyclopentyl((S)-sec-butyl)carbamate], the values for the IC50 in assay [1] and in assay [2] were 12 nM and 196 nM, respectively.

For the compound `CC1(NC(=O)O[C@H]2CC[C@@H](c3cc(Nc4ccc5c(c4F)CS(=O)(=O)N5C4CC4)n[nH]3)C2)CCOC1` (relative stereo) [Example 368, cis-3-(3-((1-cyclopropyl-4-fluoro-2,2-dioxido-1,3-dihydrobenzo[c]isothiazol-5-yl)amino)-1H-pyrazol-5-yl)cyclopentyl(3-methyltetrahydrofuran-3-yl)carbamate], the IC50 was determined as 1.2 nM in assay [1] and 95 nM in assay [2].

For the compound `CC(C)NC(=O)O[C@H]1CC[C@@H](c2cc(Nc3ccc4c(c3)C3(CC3)S(=O)(=O)N4)n[nH]2)C1` (relative stereo) [Example 200, cis-3-(3-((2,2-dioxido-1H-spiro[benzo[c]isothiazole-3, 1′-cyclopropan]-5-yl)amino)-1H-pyrazol-5-yl)cyclopentyl isopropylcarbamate], the figures for the IC50 in assay [1] and in assay [2] were 5.5 nM and 75 nM, respectively.

`CC(C)NC(=O)O[C@H]1CC[C@@H](c2cc(Nc3ccc4c(c3F)CN(CCN3CCOCC3)S4(=O)=O)n[nH]2)C1` (relative stereo) [Example 112, cis-3-(3-((4-fluoro-2-(2-morpholinoethyl)-1,1-dioxido-2,3-dihydrobenzo[d]isothiazol-5-yl)amino)-1H-pyrazol-5-yl)cyclopentyl isopropylcarbamate]: the IC50 in assay [1] came to 6.3 nM; in assay [2] it was 458 nM.

Consider `CC1NS(=O)(=O)c2ccc(Nc3cc([C@@H]4CC[C@H](OC(=O)NC5(C)CC5)C4)[nH]n3)cc21` (single isomer, unassigned) [Example 322a, cis-3-(3-((3-methyl-1,1-dioxido-2,3-dihydrobenzo[d]isothiazol-5-yl)amino)-1H-pyrazol-5-yl)cyclopentyl(1-methylcyclopropyl)carbamate], for which the IC50 in assay [1] turned out to be 1.1 nM; in assay [2], 17 nM.

`CC(C)NC(=O)O[C@H]1CC[C@@H](c2cc(Nc3ccc4c(c3F)CN(CC3CC3)S4(=O)=O)n[nH]2)C1` (relative stereo) [Example 95, cis-3-(3-((2-(cyclopropylmethyl)-4-fluoro-1,1-dioxido-2,3-dihydrobenzo[d]isothiazol-5-yl)amino)-1H-pyrazol-5-yl)cyclopentyl isopropylcarbamate]: the IC50 in assay [1] was 15 nM; in assay [2], 972 nM.

The values above are taken from patent US20260297080A1, “BICYCLIC COMPOUNDS AS CDK INHIBITORS” (BeOne Medicines I GmbH, priority 2022, published 2026).
